# Results reported in PMC9240354, “Pharmacokinetics, Pharmacodynamics and Antiviral Efficacy of the MEK Inhibitor Zapnometinib in Animal Models and in Humans” (Frontiers in Pharmacology, 2022).
# Read-outs that look alike come from different tables or passages of the source.
# Assays:
# [1] = adverse events in healthy human volunteers (phase 1); type: in vivo; settings: n = 8
# Description: Healthy men and women between 18 and 55 years of age (inclusive), who weighed at least 50 kg with a body mass index (BMI) between 18.0 and 31.0 kg/m^2 (inclusive) were enrolled in this study. Exclusion criteria were clinically significant illnesses, positive urine test for selected drugs of abuse, positive alcohol breath test at screening and upon check-in at the clinical site, positive hepatitis panel (including hepatitis B surface antigen [HBsAg] and anti-hepatitis C virus [HCV] antibodies), and positive screens for human immunodeficiency virus (HIV) antibody. This Phase 1 study was a randomized, double-blind, placebo-controlled study (clinicaltrials.gov: NCT04385420) consisting of two parts. Part 1 was a SAD study with 40 healthy volunteers who were randomized to active or placebo treatment in a 4:1 ratio (4 cohorts with n (Zapnometinib) = 8; n (placebo) = 2 in each cohort). Subjects receiving active treatment were treated with either 100 mg, 300 mg, 600 mg, or 900 mg zapnometinib. Part 2 was a MAD study with 30 healthy volunteers in three cohorts with the same randomization as in the SAD part (3 cohorts with n (Zapnometinib) = 8; n (placebo) = 2 in each cohort). Each subject in the MAD cohorts received doses of zapnometinib of either 100 mg, 300 mg, or 600 mg once daily for seven days, or placebo. The safety assessment in this study included monitoring of adverse events (AEs), clinical laboratory tests, electrocardiograms (ECG), vital signs, and physical examination. The study protocol and its amendments were reviewed by the Commissie voor Medische Ethiek ZNA, Antwerp, Belgium. This study was conducted in accordance with the ethical principles that have their origin in the Declaration of Helsinki and the International Council for Harmonization of Technical Requirements for Pharmaceuticals for Human Use (ICH) Note for Guidance on Good Clinical Practice (GCP) (CPMP/ICH/135/95) and with applicable local requirements.
# [2] = healthy volunteers, n = 8
compound,measurement,setting,value
"O=C(O)c1ccc(F)c(F)c1Nc1ccc(I)cc1Cl [zapnometinib, 2-(2-Chloro-4-Iodophenylamino)-N-3,4-Difluoro benzoic acid]",Abdominal pain,[1]; 100 mg,0 n (%)
same,Back pain,[1]; 100 mg,0 n (%)
same,Diarrhea,[1]; 100 mg,0 n (%)
same,Dizziness,[1]; 100 mg,0 n (%)
same,Erythema,[1]; 100 mg,0 n (%)
same,Gastrointestinal Disorders,[1]; 100 mg,0 n (%)
same,Headache,[1]; 100 mg,0 n (%)
same,Hepatic enzyme increase,[1]; 100 mg,0 n (%)
same,Infections and Infestations,[1]; 100 mg,0 n (%)
same,Investigations,[1]; 100 mg,0 n (%)
same,Nasopharyngitis,[1]; 100 mg,0 n (%)
same,Neck pain,[1]; 100 mg,0 n (%)
same,Nervous System Disorders,[1]; 100 mg,0 n (%)
same,"Respiratory, thoracic and Mediastinal Disorders",[1]; 100 mg,0 n (%)
same,Rhinorrhea,[1]; 100 mg,0 n (%)
same,Skin and Subcutaneous Disorders,[1]; 100 mg,0 n (%)
same,Throat irritation,[1]; 100 mg,0 n (%)
same,Abdominal pain,[1]; 300 mg,0 n (%)
same,Back pain,[1]; 300 mg,1 (12.5) n (%)
same,Diarrhea,[1]; 300 mg,0 n (%)
same,Dizziness,[1]; 300 mg,0 n (%)
same,Erythema,[1]; 300 mg,1 (12.5) n (%)
same,Gastrointestinal Disorders,[1]; 300 mg,0 n (%)
same,Headache,[1]; 300 mg,3 (37.5) n (%)
same,Hepatic enzyme increase,[1]; 300 mg,1 (12.5) n (%)
same,Infections and Infestations,[1]; 300 mg,1 (12.5) n (%)
same,Investigations,[1]; 300 mg,1 (12.5) n (%)
same,Nasopharyngitis,[1]; 300 mg,1 (12.5) n (%)
same,Neck pain,[1]; 300 mg,1 (12.5) n (%)
same,Nervous System Disorders,[1]; 300 mg,3 (37.5) n (%)
same,"Respiratory, thoracic and Mediastinal Disorders",[1]; 300 mg,1 (12.5) n (%)
same,Rhinorrhea,[1]; 300 mg,1 (12.5) n (%)
same,Skin and Subcutaneous Disorders,[1]; 300 mg,1 (12.5) n (%)
same,Throat irritation,[1]; 300 mg,0 n (%)
same,Abdominal pain,[1]; 600 mg,0 n (%)
same,Back pain,[1]; 600 mg,0 n (%)
same,Diarrhea,[1]; 600 mg,0 n (%)
same,Dizziness,[1]; 600 mg,0 n (%)
same,Erythema,[1]; 600 mg,0 n (%)
same,Gastrointestinal Disorders,[1]; 600 mg,0 n (%)
same,Headache,[1]; 600 mg,1 (12.5) n (%)
same,Hepatic enzyme increase,[1]; 600 mg,0 n (%)
same,Infections and Infestations,[1]; 600 mg,0 n (%)
same,Investigations,[1]; 600 mg,0 n (%)
same,Nasopharyngitis,[1]; 600 mg,0 n (%)
same,Neck pain,[1]; 600 mg,0 n (%)
same,Nervous System Disorders,[1]; 600 mg,1 (12.5) n (%)
same,"Respiratory, thoracic and Mediastinal Disorders",[1]; 600 mg,0 n (%)
same,Rhinorrhea,[1]; 600 mg,0 n (%)
same,Skin and Subcutaneous Disorders,[1]; 600 mg,0 n (%)
same,Throat irritation,[1]; 600 mg,0 n (%)
same,Abdominal pain,[1]; 900 mg,1 (12.5) n (%)
same,Back pain,[1]; 900 mg,0 n (%)
same,Diarrhea,[1]; 900 mg,1 (12.5) n (%)
same,Dizziness,[1]; 900 mg,0 n (%)
same,Erythema,[1]; 900 mg,1 (12.5) n (%)
same,Gastrointestinal Disorders,[1]; 900 mg,2 (25.0) n (%)
same,Headache,[1]; 900 mg,1 (12.5) n (%)
same,Hepatic enzyme increase,[1]; 900 mg,0 n (%)
same,Infections and Infestations,[1]; 900 mg,0 n (%)
same,Investigations,[1]; 900 mg,0 n (%)
same,Nasopharyngitis,[1]; 900 mg,0 n (%)
same,Neck pain,[1]; 900 mg,0 n (%)
same,Nervous System Disorders,[1]; 900 mg,1 (12.5) n (%)
same,"Respiratory, thoracic and Mediastinal Disorders",[1]; 900 mg,1 (12.5) n (%)
same,Rhinorrhea,[1]; 900 mg,0 n (%)
same,Skin and Subcutaneous Disorders,[1]; 900 mg,1 (12.5) n (%)
same,Throat irritation,[1]; 900 mg,1 (12.5) n (%)
same,C24 h,[2]; single oral dose 100 mg,1000 ± 400 ng/mL
same,C24 h,[2]; single oral dose 300 mg,4000 ± 800 ng/mL
same,C24 h,[2]; single oral dose 600 mg,8000 ± 2000 ng/mL
same,C24 h,[2]; single oral dose 900 mg,16000 ± 6000 ng/mL
